Laboratory results from ChEMBL document CHEMBL5108033, “Salidroside attenuates sepsis-associated acute lung injury through PPP1R15A mediated endoplasmic reticulum stress inhibition” (2022).
The source made the active and inactive calls. The rule behind the calls is not given here.

How the values were obtained:
Rattus norvegicus [1] = assay: Protection against cecal ligation-induced Sprague-Dawley rat sepsis associated acute lung injury model assessed as reduction in lung injury at 50 mg/kg, ip and measured after 24 hrs by H and E staining based analysis; type: functional, organism-based
Rattus norvegicus [2] = assay: Protection against cecal ligation-induced Sprague-Dawley rat sepsis associated acute lung injury model assessed as reduction in serum IL-1beta at 50 mg/kg, ip and measured after 24 hrs by ELISA; type: functional, organism-based
Rattus norvegicus [3] = assay: Protection against cecal ligation-induced Sprague-Dawley rat sepsis associated acute lung injury model assessed as reduction in serum TNF-alpha at 50 mg/kg, ip and measured after 24 hrs by ELISA; type: functional, organism-based
Rattus norvegicus [4] = assay: Protection against cecal ligation-induced Sprague-Dawley rat sepsis associated acute lung injury model assessed as reduction in serum IL-6 at 50 mg/kg, ip and measured after 24 hrs by ELISA; type: functional, organism-based
Rattus norvegicus [5] = assay: Protection against cecal ligation-induced Sprague-Dawley rat sepsis associated acute lung injury model assessed as reduction in total cell number in BALF at 50 mg/kg, ip and measured after 24 hrs by cell counter analysis; type: functional, organism-based
Rattus norvegicus [6] = assay: Protection against cecal ligation-induced Sprague-Dawley rat sepsis associated acute lung injury model assessed as reduction in neutrophil number in BALF at 50 mg/kg, ip and measured after 24 hrs by cell counter analysis; type: functional, organism-based
Rattus norvegicus [7] = assay: Protection against cecal ligation-induced Sprague-Dawley rat sepsis associated acute lung injury model assessed as reduction in neutrophil elastase activity in BALF at 50 mg/kg, ip and measured after 24 hrs by Elastase assay; type: functional, organism-based
Rattus norvegicus [8] = assay: Protection against cecal ligation-induced Sprague-Dawley rat sepsis associated acute lung injury model assessed as reduction in lung wet weight to dry weight ratio at 50 mg/kg, ip and measured after 24 hrs; type: functional, organism-based
Rattus norvegicus [9] = assay: Protection against cecal ligation-induced Sprague-Dawley rat sepsis associated acute lung injury model assessed as reduction in lung water content at 50 mg/kg, ip and measured after 24 hrs; type: functional, organism-based
Rattus norvegicus [10] = assay: Protection against cecal ligation-induced Sprague-Dawley rat sepsis associated acute lung injury model assessed as reduction in albumin content in alveolar lavage fluid supernatant at 50 mg/kg, ip and measured after 24 hrs; type: functional, organism-based
Rattus norvegicus [11] = assay: Protection against cecal ligation-induced Sprague-Dawley rat sepsis associated acute lung injury model assessed as upregulation of cecal ligation inhibited PPP1R15A at 50 mg/kg, ip and measured after 24 hrs; type: functional, organism-based
Rattus norvegicus [12] = assay: Protection against cecal ligation-induced Sprague-Dawley rat sepsis associated acute lung injury model assessed as downregulation of cecal ligation induced phosphorylated eIF-2alpha level at 50 mg/kg, ip and measured after 24 hrs; type: functional, organism-based
Rattus norvegicus [13] = assay: Protection against cecal ligation-induced Sprague-Dawley rat sepsis associated acute lung injury model assessed as downregulation of cecal ligation induced GRP78 level at 50 mg/kg, ip and measured after 24 hrs; type: functional, organism-based
Rattus norvegicus [14] = assay: Protection against cecal ligation-induced Sprague-Dawley rat sepsis associated acute lung injury model assessed as downregulation of cecal ligation induced ATF4 level at 50 mg/kg, ip and measured after 24 hrs; type: functional, organism-based
Rattus norvegicus [15] = assay: Protection against cecal ligation-induced Sprague-Dawley rat sepsis associated acute lung injury model assessed as downregulation of cecal ligation induced CHOP level at 50 mg/kg, ip and measured after 24 hrs; type: functional, organism-based
Epithelial cell [16] = assay: Upregulation of PPP1R15A expression in LPS-stimulated human HBE cells assessed as inhibition of LPS down regulated PPP1R15A expression at 40 uM incubated for 1 hrs by qRT-PCR analysis; type: functional, cell-based
Epithelial cell [17] = assay: Cytotoxicity against LPS-stimulated human HBE cells assessed as increase in cell viability at 40 uM and measured for 24 to 72 hrs by CCK-8 assay; type: functional, cell-based; conditions: time 24-72 hrs
Epithelial cell [18] = assay: Inhibition of apoptosis in LPS-stimulated human HBE cells assessed as necrotic cells at 40 uM incubated for 1 hr by AnnexinV-FITC/PI staining based flow cytometric analysis (Rvb=0.444%); type: functional; set-up: scale not given: the % may be the effect or the level left
Epithelial cell [19] = assay: Inhibition of apoptosis in LPS-stimulated human HBE cells assessed as early apoptotic cells at 40 uM incubated for 1 hr by AnnexinV-FITC/PI staining based flow cytometric analysis (Rvb=21.5%); type: functional; set-up: scale not given: the % may be the effect or the level left
Epithelial cell [20] = assay: Inhibition of apoptosis in LPS-stimulated human HBE cells assessed as late apoptotic cells at 40 uM incubated for 1 hr by AnnexinV-FITC/PI staining based flow cytometric analysis (Rvb=5.75%); type: functional; set-up: scale not given: the % may be the effect or the level left
Epithelial cell [21] = assay: Inhibition of apoptosis in LPS-stimulated human HBE cells assessed as viable cells at 40 uM incubated for 1 hr by AnnexinV-FITC/PI staining based flow cytometric analysis (Rvb=72.3%); type: functional; conditions: read-out: Activity
Epithelial cell [22] = assay: Induction of apoptosis in LPS-stimulated human HBE cells with silenced PPP1R15A assessed as necrotic cells at 40 uM incubated for 1 hr by AnnexinV-FITC/PI staining based flow cytometric analysis (Rvb=0.518%); type: functional
Epithelial cell [23] = assay: Induction of apoptosis in LPS-stimulated human HBE cells with silenced PPP1R15A assessed as early apoptotic cells at 40 uM incubated for 1 hr by AnnexinV-FITC/PI staining based flow cytometric analysis (Rvb=11%); type: functional
Epithelial cell [24] = assay: Induction of apoptosis in LPS-stimulated human HBE cells with silenced PPP1R15A assessed as late apoptotic cells at 40 uM incubated for 1 hr by AnnexinV-FITC/PI staining based flow cytometric analysis (Rvb=2.30%); type: functional
Epithelial cell [25] = assay: Induction of apoptosis in LPS-stimulated human HBE cells with silenced PPP1R15A assessed as late apoptotic cells at 40 uM incubated for 1 hr by AnnexinV-FITC/PI staining based flow cytometric analysis (Rvb=85.7%); type: functional
Epithelial cell [26] = assay: Downregulation of phosphorylated eIF-2alpha expression in LPS-stimulated human HBE cells at 40 uM incubated for 1 hr by western blot analysis; type: functional, cell-based
Epithelial cell [27] = assay: Downregulation of GRP78 expression in LPS-stimulated human HBE cells at 40 uM incubated for 1 hr by western blot analysis; type: functional, cell-based
Epithelial cell [28] = assay: Downregulation of ATF4 expression in LPS-stimulated human HBE cells at 40 uM incubated for 1 hr by western blot analysis; type: functional, cell-based
Epithelial cell [29] = assay: Downregulation of CHOP expression in LPS-stimulated human HBE cells at 40 uM incubated for 1 hr by western blot analysis; type: functional, cell-based
Epithelial cell [30] = assay: Downregulation of phosphorylated eIF-2alpha expression in LPS-stimulated human HBE cells with silenced PPP1R15A at 40 uM incubated for 1 hr in presence of TUDCA by western blot analysis; type: functional, cell-based
Epithelial cell [31] = assay: Downregulation of GRP78 in LPS-stimulated human HBE cells with silenced PPP1R15A at 40 uM incubated for 1 hr in presence of TUDCA by western blot analysis; type: functional, cell-based
Epithelial cell [32] = assay: Downregulation of ATF4 in LPS-stimulated human HBE cells with silenced PPP1R15A at 40 uM incubated for 1 hr in presence of TUDCA by western blot analysis; type: functional, cell-based
Epithelial cell [33] = assay: Downregulation of CHOP in LPS-stimulated human HBE cells with silenced PPP1R15A at 40 uM incubated for 1 hr in presence of TUDCA by western blot analysis; type: functional, cell-based
Epithelial cell [34] = assay: Cytotoxicity against LPS-stimulated human HBE cells with silenced PPP1R15A assessed as increase in cell viability at 40 uM and measured for 24 to 72 hrs in presence of TUDCA by CCK-8 assay; type: functional, cell-based; conditions: time 24-72 hrs
Epithelial cell [35] = assay: Inhibition of apoptosis in LPS-stimulated human HBE cells with silenced PPP1R15A assessed as necrotic cells at 40 uM incubated for 1 hr in presence of TUDCA by AnnexinV-FITC/PI staining based flow cytometric analysis (Rvb=2.48%); type: functional; set-up: scale not given: the % may be the effect or the level left
Epithelial cell [36] = assay: Inhibition of apoptosis in LPS-stimulated human HBE cells with silenced PPP1R15A assessed as early apoptotic cells at 40 uM incubated for 1 hr in presence of TUDCA by AnnexinV-FITC/PI staining based flow cytometric analysis (Rvb=9.22%); type: functional; set-up: scale not given: the % may be the effect or the level left
Epithelial cell [37] = assay: Inhibition of apoptosis in LPS-stimulated human HBE cells with silenced PPP1R15A assessed as late apoptotic cells at 40 uM incubated for 1 hr in presence of TUDCA by AnnexinV-FITC/PI staining based flow cytometric analysis (Rvb=5.08%); type: functional; set-up: scale not given: the % may be the effect or the level left
Epithelial cell [38] = assay: Inhibition of apoptosis in LPS-stimulated human HBE cells with silenced PPP1R15A assessed as necrotic cells at 40 uM incubated for 1 hr in presence of TUDCA by AnnexinV-FITC/PI staining based flow cytometric analysis (Rvb=83.2%); type: functional; set-up: scale not given: the % may be the effect or the level left

SMILES: OC[C@H]1O[C@@H](OCCc2ccc(O)cc2)[C@H](O)[C@@H](O)[C@@H]1O [SALIDROSIDE]
- Activity (Rattus norvegicus [1]): Active
- Activity (Rattus norvegicus [2]): Active
- Activity (Rattus norvegicus [3]): Active
- Activity (Rattus norvegicus [4]): Active
- Activity (Rattus norvegicus [5]): Active
- Activity (Rattus norvegicus [6]): Active
- Activity (Rattus norvegicus [7]): Active
- Activity (Rattus norvegicus [8]): Active
- Activity (Rattus norvegicus [9]): Active
- Activity (Rattus norvegicus [10]): Active
- Activity (Rattus norvegicus [11]): Active
- Activity (Rattus norvegicus [12]): Active
- Activity (Rattus norvegicus [13]): Active
- Activity (Rattus norvegicus [14]): Active
- Activity (Rattus norvegicus [15]): Active
- Activity (Epithelial cell [16]): Active
- Activity (Epithelial cell [17]): Active
- Activity (Epithelial cell [18]): 1.03%
- Activity (Epithelial cell [19]): 11%
- Activity (Epithelial cell [20]): 3.27%
- viability at 40 µM (Epithelial cell [21]): 84.7%
- Activity (Epithelial cell [22]): 0.436%
- Activity (Epithelial cell [23]): 21.3%
- Activity (Epithelial cell [24]): 3.74%
- Activity (Epithelial cell [25]): 74.3%
- Activity (Epithelial cell [26]): Active
- Activity (Epithelial cell [27]): Active
- Activity (Epithelial cell [28]): Active
- Activity (Epithelial cell [29]): Active
- Activity (Epithelial cell [30]): Active
- Activity (Epithelial cell [31]): Active
- Activity (Epithelial cell [32]): Active
- Activity (Epithelial cell [33]): Active
- Activity (Epithelial cell [34]): Active
- Activity (Epithelial cell [35]): 0.817%
- Activity (Epithelial cell [36]): 11.5%
- Activity (Epithelial cell [37]): 3.7%
- Activity (Epithelial cell [38]): 84%

SMILES: C[C@@H]1C[C@H]2[C@@H]3CCC4=CC(=O)C=C[C@]4(C)[C@@]3(F)[C@@H](O)C[C@]2(C)[C@@]1(O)C(=O)CO
- Activity (Rattus norvegicus [1]): Active
- Activity (Rattus norvegicus [2]): Active
- Activity (Rattus norvegicus [3]): Active
- Activity (Rattus norvegicus [4]): Active
- Activity (Rattus norvegicus [5]): Active
- Activity (Rattus norvegicus [6]): Active
- Activity (Rattus norvegicus [7]): Active
- Activity (Rattus norvegicus [8]): Active
- Activity (Rattus norvegicus [9]): Active
- Activity (Rattus norvegicus [10]): Active
- Activity (Rattus norvegicus [11]): Active
- Activity (Rattus norvegicus [12]): Active
- Activity (Rattus norvegicus [13]): Active
- Activity (Rattus norvegicus [14]): Active
- Activity (Rattus norvegicus [15]): Active
